Entries after “also recorded” stand apart in the source; their conditions may differ.
Assays:
ghrelin KO mice [1] = assay: obestatin replacement by osmotic minipump in ghrelin KO mice, fasting in cold environment; type: in vivo
Source text: Likewise, in addition to ghrelin, another product of the ghrelin gene is obestatin. The effects of obestatin on food intake and metabolism appear to be the opposite of those of ghrelin although the results are still inconclusive (2, 10-14). If obestatin has a leptin-like role in the regulation of metabolism, then decreased resistance to metabolic challenge in ghrelin KO mice could be explained by the lack of this hormone. Based on this idea, Applicants attempted to rescue the herein disclosed impaired phenotype by replacing obestatin in ghrelin KO mice. There are several potential ways to do this, although each has its own limitations. The effects of a single bolus injection of obestatin are limited by the half-life of the peptide (22±2 min). […] Because of those limitations, obestatin was replaced using osmotic minipumps. This method also has limitations. The minipumps are filled and implanted at least 10 days before the challenge to allow enough time for recovery and to carry out the experiment. The stability of obestatin in solution at body temperature for such extended time period is unknown. Moreover, some of the biological effects of obestatin show a bell-shaped dose-response relationship. […]
Body temperature data are expressed as difference from baseline in 10-min averages.

ghrelin KO mice [2] = assay: bolus injections of obestatin in ghrelin KO mice (preliminary data); type: in vivo; settings: preliminary data (not shown)
Source text: Likewise, in addition to ghrelin, another product of the ghrelin gene is obestatin. The effects of obestatin on food intake and metabolism appear to be the opposite of those of ghrelin although the results are still inconclusive (2, 10-14). If obestatin has a leptin-like role in the regulation of metabolism, then decreased resistance to metabolic challenge in ghrelin KO mice could be explained by the lack of this hormone. Based on this idea, Applicants attempted to rescue the herein disclosed impaired phenotype by replacing obestatin in ghrelin KO mice. There are several potential ways to do this, although each has its own limitations. The effects of a single bolus injection of obestatin are limited by the half-life of the peptide (22±2 min). […] Because of those limitations, obestatin was replaced using osmotic minipumps. This method also has limitations. The minipumps are filled and implanted at least 10 days before the challenge to allow enough time for recovery and to carry out the experiment. The stability of obestatin in solution at body temperature for such extended time period is unknown. Moreover, some of the biological effects of obestatin show a bell-shaped dose-response relationship. It is unknown whether the amount of obestatin released from the minipumps provides the optimal plasma levels or appropriate pulsatile or ultradian secretion patterns.

ghrelin mRNA = assay: initial screening of ghrelin siRNAs using cultured cells: suppression of ghrelin mRNA in vitro; type: cell-based, mouse
Method: In certain preferred embodiments, baseline food intake for the 12-h light and dark period is measured over a 48-h time period in rats (n=16) that receive no treatment. On the third day, rats are separated randomly into two groups. One group of rats (n=8) is treated with scrambled ghrelin siRNA, the other group of rats receive ghrelin siRNA in the same volume administered orally by using an intragastric gavage. The dose and the specific siRNA is determined by an initial screening of ghrelin siRNAs using cultured cells. The siRNA that induces a significant suppression of ghrelin mRNA (for example, Applicants have shown that GGUUCAAUGCUCCCUUCGAtt (SEQ ID NO:17) suppressed ghrelin mRNA levels by 40% in vitro) compared to scrambled or saline control is, then, used in vivo. Food intake is measure before dark and light onset on each experimental day and for 5 additional days after the siRNA treatment. Body weight is monitored once a day. Additionally, rats are implanted with EEG and EMG electrodes for sleep-wake recordings.

Substance | development of hypothermia / hypothermic response (ghrelin KO mice [1]; osmotic minipump, fasting day) | entered hypothermia later than those that received saline (ghrelin KO mice [1]; subcutaneous infusion of 300 nmol/kg/day for 10 days by osmotic minipump) | hypothermia in ghrelin KO mice (ghrelin KO mice [2]) | suppression of ghrelin mRNA levels (ghrelin mRNA) [%]
obestatin | significantly attenuated; also recorded: significantly delayed | about 6 hours | attenuated hypothermia | 
SEQ ID NO:17: ghrelin siRNA (mouse), sequence GGUUCAAUGCUCCCUUCGAtt (GGUUCAAUGCUCCCUUCGATT; chemistry not given here) |  |  |  | 40

Source: US8309530B2, “Compositions and methods for modulating ghrelin-mediated conditions” (Washington State University, priority 2009, dated 2012)
